Assay results as given in PubChem BioAssay (NCI).
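Each compound was tested at five concentrations against cells in 96-well plates for 48 hours. TGI: concentration producing complete growth inhibition.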

What follows are molecules tested on OVCAR-4 ovarian (assay: DTP human tumour cell line panel, 48 h).

Structure (SMILES) | TGI
C=CCC1(O)CC(n2cc(C)c(=O)[nH]c2=O)OC1CO[Si](C)(C)C(C)(C)C (stereo not drawn) | > 100 µM
NC1CC(=O)c2cscc21 (stereo not drawn) | > 100 µM
CC(=O)NC1=C(NCC(C)(C)C)C(=O)c2ccccc2C1=O | > 100 µM
COc1c2c(cc3c1C(=O)c1c(O)cccc1C3=O)CC(O)CC2 (stereo not drawn) | > 100 µM
COc1cc2c(c(OC)c1O)-c1ccc(SC)c(=O)cc1C(NC(C)=O)CC2 (stereo not drawn) | > 100 µM
CC(=O)c1cccc(Nc2nc3ccccc3c3occc23)c1 | 61.5 µM
O=C(CSC(=S)N1CCCCC1)Nc1nc2c(s1)CCCC2 | > 100 µM

The molecules below were run on UACC-62 melanoma (assay: DTP human tumour cell line panel, 48 h).

Structure (SMILES) | TGI
COc1ccc(/C=c2/sc3n(c2=O)C(c2ccccc2)C2(O)CCCCC2N=3)cc1 (stereo not drawn) | > 12.5 µM
CCN(CC)c1ccc2cc(C(N)=O)c(=N)oc2c1 | > 100 µM
Cc1ccc2c(c1)[nH]c(=S)n2C=C(C(N)=O)C(N)=O | > 100 µM
C=CC[C@H]1O[Si](C(C)(C)C)(C(C)(C)C)[C@H](C)[C@H]1C | > 100 µM
Cc1ccc(Nc2nc(=O)c3c4ccccc4n(C(=O)OC(C)(C)C)c3s2)cc1 | 63.5 µM
N#Cc1cccc2c1Sc1ccccc1N2 | > 100 µM
NC1c2c(Br)sc(N3CCCC3)c2C(=O)C1O (stereo not drawn) | > 50 µM
CSC1=C(C#N)C(=S)N=C(N)C1C(=O)Nc1ccc(C)cc1 (stereo not drawn) | > 100 µM
C/C=C/C(C#N)(/C=C/c1ccccc1)OP1(=O)OC(c2ccccc2)C(C)N1C (stereo not drawn) | 34.5 µM
COc1ccc2c(c1)CC[C@@H]1[C@@H]2CC[C@]2(C)C(=O)/C(=C/c3ccc(N(C)C)cc3)C[C@@H]12 | > 100 µM
CN(C)CCCN1c2ccc([N+](=O)[O-])cc2CCc2cccc([N+](=O)[O-])c21 | 10.4 µM
Cc1cc(=O)[nH]c(NNC(C#N)c2cccc(O)c2)n1 (stereo not drawn) | > 100 µM
CCOC(=O)c1c(SC(=O)c2ccc(C(C)(C)C)cc2)n(-c2ccccc2)c(=S)n(-c2ccccc2)c1=O | > 100 µM
CSCCCN(CCCSC)CCCSC | > 100 µM
COc1cc(-c2ccc(Br)[nH]2)[nH]c1C=NCC(C)C | 7.33 µM
Cc1ccc(-c2n[nH]c(Cc3nc(-c4ccc(C)cc4)n[nH]3)n2)cc1 | > 100 µM
CN(CC(=O)N1CC(CCl)c2ccc([N+](=O)[O-])cc21)CC(=O)N1CC(CCl)c2ccc([N+](=O)[O-])cc21 (stereo not drawn) | > 100 µM
Cc1c2n(c(=O)[nH]c1=O)C1OC(CO)C(O2)C1N=[N+]=[N-] (stereo not drawn) | > 100 µM
CCOC(=O)c1ncn2c1[nH]c(=S)c1ccccc12 | > 100 µM
O=C(O)CCC(NC(=O)c1ccc(OCc2nc3cc(C(F)(F)F)ccc3nc2-c2ccccc2)cc1)C(=O)O (stereo not drawn) | > 100 µM
COc1ccc(-c2cc(=O)c3ccc(O)cc3o2)c(OC)c1OC | > 100 µM
C=CCC1(O)CC(n2cc(C)c(=O)[nH]c2=O)OC1CO[Si](C)(C)C(C)(C)C (stereo not drawn) | > 100 µM
CC(=O)NC1=C(NCC(C)(C)C)C(=O)c2ccccc2C1=O | > 100 µM
COc1c2c(cc3c1C(=O)c1c(O)cccc1C3=O)CC(O)CC2 (stereo not drawn) | > 100 µM
COc1cc2c(c(OC)c1O)-c1ccc(SC)c(=O)cc1C(NC(C)=O)CC2 (stereo not drawn) | > 100 µM

These molecules were tested on UO-31 renal (assay: DTP human tumour cell line panel, 48 h).

Structure (SMILES) | TGI
COc1ccc(/C=c2/sc3n(c2=O)C(c2ccccc2)C2(O)CCCCC2N=3)cc1 (stereo not drawn) | > 12.5 µM
Cc1ccc2c(c1)[nH]c(=S)n2C=C(C(N)=O)C(N)=O | > 100 µM
C=CC[C@H]1O[Si](C(C)(C)C)(C(C)(C)C)[C@H](C)[C@H]1C | > 100 µM
Cc1ccc(Nc2nc(=O)c3c4ccccc4n(C(=O)OC(C)(C)C)c3s2)cc1 | 22.8 µM
N#Cc1cccc2c1Sc1ccccc1N2 | 87.9 µM
NC1c2c(Br)sc(N3CCCC3)c2C(=O)C1O (stereo not drawn) | > 50 µM
CSC1=C(C#N)C(=S)N=C(N)C1C(=O)Nc1ccc(C)cc1 (stereo not drawn) | > 100 µM
C/C=C/C(C#N)(/C=C/c1ccccc1)OP1(=O)OC(c2ccccc2)C(C)N1C (stereo not drawn) | 32.6 µM
COc1ccc2c(c1)CC[C@@H]1[C@@H]2CC[C@]2(C)C(=O)/C(=C/c3ccc(N(C)C)cc3)C[C@@H]12 | > 100 µM
Cc1cc(=O)[nH]c(NNC(C#N)c2cccc(O)c2)n1 (stereo not drawn) | > 100 µM
CSCCCN(CCCSC)CCCSC | > 100 µM
COc1cc(-c2ccc(Br)[nH]2)[nH]c1C=NCC(C)C | 4.77 µM
Cc1ccc(-c2n[nH]c(Cc3nc(-c4ccc(C)cc4)n[nH]3)n2)cc1 | > 100 µM
CN(CC(=O)N1CC(CCl)c2ccc([N+](=O)[O-])cc21)CC(=O)N1CC(CCl)c2ccc([N+](=O)[O-])cc21 (stereo not drawn) | > 100 µM
Cc1c2n(c(=O)[nH]c1=O)C1OC(CO)C(O2)C1N=[N+]=[N-] (stereo not drawn) | > 100 µM
CCOC(=O)c1ncn2c1[nH]c(=S)c1ccccc12 | > 100 µM
O=C(O)CCC(NC(=O)c1ccc(OCc2nc3cc(C(F)(F)F)ccc3nc2-c2ccccc2)cc1)C(=O)O (stereo not drawn) | > 100 µM
C=CCC1(O)CC(n2cc(C)c(=O)[nH]c2=O)OC1CO[Si](C)(C)C(C)(C)C (stereo not drawn) | > 100 µM
NC1CC(=O)c2cscc21 (stereo not drawn) | 22.1 µM
CC(=O)NC1=C(NCC(C)(C)C)C(=O)c2ccccc2C1=O | > 100 µM
COc1c2c(cc3c1C(=O)c1c(O)cccc1C3=O)CC(O)CC2 (stereo not drawn) | > 100 µM
COc1cc2c(c(OC)c1O)-c1ccc(SC)c(=O)cc1C(NC(C)=O)CC2 (stereo not drawn) | > 100 µM
O=C(CSC(=S)N1CCCCC1)Nc1nc2c(s1)CCCC2 | > 100 µM

These molecules were tested on NCI-H522 lung (assay: DTP human tumour cell line panel, 48 h).

Structure (SMILES) | TGI
COc1ccc(/C=c2/sc3n(c2=O)C(c2ccccc2)C2(O)CCCCC2N=3)cc1 (stereo not drawn) | > 12.5 µM
C=CC[C@H]1O[Si](C(C)(C)C)(C(C)(C)C)[C@H](C)[C@H]1C | > 100 µM
Cc1ccc(Nc2nc(=O)c3c4ccccc4n(C(=O)OC(C)(C)C)c3s2)cc1 | 59.3 µM
NC1c2c(Br)sc(N3CCCC3)c2C(=O)C1O (stereo not drawn) | > 50 µM
CSC1=C(C#N)C(=S)N=C(N)C1C(=O)Nc1ccc(C)cc1 (stereo not drawn) | 94.8 µM
C/C=C/C(C#N)(/C=C/c1ccccc1)OP1(=O)OC(c2ccccc2)C(C)N1C (stereo not drawn) | 42.2 µM
CN(C)CCCN1c2ccc([N+](=O)[O-])cc2CCc2cccc([N+](=O)[O-])c21 | 32.1 µM
Cc1cc(=O)[nH]c(NNC(C#N)c2cccc(O)c2)n1 (stereo not drawn) | > 100 µM
CCOC(=O)c1c(SC(=O)c2ccc(C(C)(C)C)cc2)n(-c2ccccc2)c(=S)n(-c2ccccc2)c1=O | > 100 µM
CSCCCN(CCCSC)CCCSC | > 100 µM
Cc1ccc(-c2n[nH]c(Cc3nc(-c4ccc(C)cc4)n[nH]3)n2)cc1 | > 100 µM
CN(CC(=O)N1CC(CCl)c2ccc([N+](=O)[O-])cc21)CC(=O)N1CC(CCl)c2ccc([N+](=O)[O-])cc21 (stereo not drawn) | > 100 µM
Cc1c2n(c(=O)[nH]c1=O)C1OC(CO)C(O2)C1N=[N+]=[N-] (stereo not drawn) | > 100 µM
CCOC(=O)c1ncn2c1[nH]c(=S)c1ccccc12 | > 100 µM
O=C(O)CCC(NC(=O)c1ccc(OCc2nc3cc(C(F)(F)F)ccc3nc2-c2ccccc2)cc1)C(=O)O (stereo not drawn) | > 100 µM
COc1ccc(-c2cc(=O)c3ccc(O)cc3o2)c(OC)c1OC | 82.8 µM
CC(=O)NC1=C(NCC(C)(C)C)C(=O)c2ccccc2C1=O | 49.7 µM
O=C(CSC(=S)N1CCCCC1)Nc1nc2c(s1)CCCC2 | 65.7 µM

The molecules below were run on HS 578T breast (assay: DTP human tumour cell line panel, 48 h).

Structure (SMILES) | TGI
CCN(CC)c1ccc2cc(C(N)=O)c(=N)oc2c1 | 45.8 µM
Cc1ccc(Nc2nc(=O)c3c4ccccc4n(C(=O)OC(C)(C)C)c3s2)cc1 | > 100 µM
NC1c2c(Br)sc(N3CCCC3)c2C(=O)C1O (stereo not drawn) | > 50 µM
CSC1=C(C#N)C(=S)N=C(N)C1C(=O)Nc1ccc(C)cc1 (stereo not drawn) | > 100 µM
C/C=C/C(C#N)(/C=C/c1ccccc1)OP1(=O)OC(c2ccccc2)C(C)N1C (stereo not drawn) | 49.9 µM
CN(C)CCCN1c2ccc([N+](=O)[O-])cc2CCc2cccc([N+](=O)[O-])c21 | 31.7 µM
CCOC(=O)c1c(SC(=O)c2ccc(C(C)(C)C)cc2)n(-c2ccccc2)c(=S)n(-c2ccccc2)c1=O | > 100 µM
COc1cc(-c2ccc(Br)[nH]2)[nH]c1C=NCC(C)C | 5.26 µM
CN(CC(=O)N1CC(CCl)c2ccc([N+](=O)[O-])cc21)CC(=O)N1CC(CCl)c2ccc([N+](=O)[O-])cc21 (stereo not drawn) | > 100 µM
COc1c2c(cc3c1C(=O)c1c(O)cccc1C3=O)CC(O)CC2 (stereo not drawn) | 74.1 µM

The molecules below were run on U251 CNS (assay: DTP human tumour cell line panel, 48 h).

Structure (SMILES) | TGI
COc1ccc(/C=c2/sc3n(c2=O)C(c2ccccc2)C2(O)CCCCC2N=3)cc1 (stereo not drawn) | > 12.5 µM
CCN(CC)c1ccc2cc(C(N)=O)c(=N)oc2c1 | > 100 µM
Cc1ccc2c(c1)[nH]c(=S)n2C=C(C(N)=O)C(N)=O | > 100 µM
C=CC[C@H]1O[Si](C(C)(C)C)(C(C)(C)C)[C@H](C)[C@H]1C | > 100 µM
Cc1ccc(Nc2nc(=O)c3c4ccccc4n(C(=O)OC(C)(C)C)c3s2)cc1 | > 100 µM
N#Cc1cccc2c1Sc1ccccc1N2 | > 100 µM
NC1c2c(Br)sc(N3CCCC3)c2C(=O)C1O (stereo not drawn) | > 50 µM
CSC1=C(C#N)C(=S)N=C(N)C1C(=O)Nc1ccc(C)cc1 (stereo not drawn) | > 100 µM
C/C=C/C(C#N)(/C=C/c1ccccc1)OP1(=O)OC(c2ccccc2)C(C)N1C (stereo not drawn) | 32.8 µM
COc1ccc2c(c1)CC[C@@H]1[C@@H]2CC[C@]2(C)C(=O)/C(=C/c3ccc(N(C)C)cc3)C[C@@H]12 | > 100 µM
CN(C)CCCN1c2ccc([N+](=O)[O-])cc2CCc2cccc([N+](=O)[O-])c21 | 29.3 µM
Cc1cc(=O)[nH]c(NNC(C#N)c2cccc(O)c2)n1 (stereo not drawn) | > 100 µM
CCOC(=O)c1c(SC(=O)c2ccc(C(C)(C)C)cc2)n(-c2ccccc2)c(=S)n(-c2ccccc2)c1=O | > 100 µM
CSCCCN(CCCSC)CCCSC | > 100 µM
COc1cc(-c2ccc(Br)[nH]2)[nH]c1C=NCC(C)C | 3.88 µM
Cc1ccc(-c2n[nH]c(Cc3nc(-c4ccc(C)cc4)n[nH]3)n2)cc1 | 33.8 µM
CN(CC(=O)N1CC(CCl)c2ccc([N+](=O)[O-])cc21)CC(=O)N1CC(CCl)c2ccc([N+](=O)[O-])cc21 (stereo not drawn) | > 100 µM
Cc1c2n(c(=O)[nH]c1=O)C1OC(CO)C(O2)C1N=[N+]=[N-] (stereo not drawn) | > 100 µM
CCOC(=O)c1ncn2c1[nH]c(=S)c1ccccc12 | > 100 µM
O=C(O)CCC(NC(=O)c1ccc(OCc2nc3cc(C(F)(F)F)ccc3nc2-c2ccccc2)cc1)C(=O)O (stereo not drawn) | > 100 µM
C=CCC1(O)CC(n2cc(C)c(=O)[nH]c2=O)OC1CO[Si](C)(C)C(C)(C)C (stereo not drawn) | > 100 µM
NC1CC(=O)c2cscc21 (stereo not drawn) | > 100 µM
CC(=O)NC1=C(NCC(C)(C)C)C(=O)c2ccccc2C1=O | > 100 µM
COc1c2c(cc3c1C(=O)c1c(O)cccc1C3=O)CC(O)CC2 (stereo not drawn) | > 100 µM
COc1cc2c(c(OC)c1O)-c1ccc(SC)c(=O)cc1C(NC(C)=O)CC2 (stereo not drawn) | > 5.55 µM
CC(=O)c1cccc(Nc2nc3ccccc3c3occc23)c1 | 55.9 µM
O=C(CSC(=S)N1CCCCC1)Nc1nc2c(s1)CCCC2 | > 100 µM

Each molecule was assayed on SF-268 CNS (assay: DTP human tumour cell line panel, 48 h).

Structure (SMILES) | TGI
COc1ccc(/C=c2/sc3n(c2=O)C(c2ccccc2)C2(O)CCCCC2N=3)cc1 (stereo not drawn) | > 12.5 µM
CCN(CC)c1ccc2cc(C(N)=O)c(=N)oc2c1 | > 100 µM
Cc1ccc2c(c1)[nH]c(=S)n2C=C(C(N)=O)C(N)=O | > 100 µM
